Assay results from patent US20240390434A1, “PROBIOTIC ENHANCERS AND USES THEREOF” (Blis Technologies Limited, priority 2021, published 2024).

What was measured:
Type in all cases: cell-based
[1] = test system: microorganisms associated with skin, dental, ENTR; assay: Dose response assay, raffinose vs equimolar trimix and individual saccharides, K12; conditions: equimolar concentration
Description: CABCa agar plates containing various concentrations of saccharide were prepared according to the methods described in Method 1. Producer strains were transferred from stock agar plates into 900 μL THB using a fresh cotton swab. A plastic spread plater was cut to approximately 1.2 cm width and then dipped into ethanol and left to air dry to ensure sterility. A 100 μL sample of the producer strain suspension was then dispensed onto the agar surface in a straight line running diametrically across the agar surface in (approximately) 20 μL spots. The spots were spaced approximately 1.5 cm apart from each other. The plastic spreader was then used to evenly distribute the spots across the agar surface in a 1.5 cm wide strip. This step was taken to ensure an even producer streak was inoculated onto the agar surface and provided an approximate measure of the initial inoculum concentration. Separate plastic spreaders were used for samples containing different producer strains. The samples were left to soak into the agar surface until there was no visible liquid remaining on the agar surface (approximately 20 minutes). Following producer streak preparations, the deferred antagonism assay protocol was followed as per Method 2. Results were recorded by measuring the size of the zone of inhibition (ZOI) in mm. […]

P. aeruginosa I2 = assay: Dose response deferred antagonism assay, producer M18; conditions: 1.5% (w/v) raffinose
H. influenzae TW5 [2] = assay: Dose response deferred antagonism assay, producer K12
Description: (§1) 1-2 producer strain colonies were transferred from a stock plate into 900 μL of suspension solution using a fresh cotton swab. Following this, suspensions were vortexed, and a sample was inoculated onto solid culture media using a fresh cotton swab. The inoculation was a streak that runs diametrically across the agar plate in a 1.5 cm wide strip. The plate was then incubated. Following incubation all visible colonies were removed by swabbing them from the agar surface. The plates were then treated with chloroform by dispensing 2 ml of chloroform onto 4 cm×4 cm piece of cloth and sealing the inverted agar plate on top for 30 minutes. The plates were then air dried for 30 minutes following chloroforming. 1-2 indicator strain colonies were then transferred from a stock plate into complementary suspension solution. The suspensions were then vortexed, and a sample was inoculated onto the same agar surface. These samples were streaked in a perpendicular direction to the initial producer streak.
(§2) Each indicator streak was prepared with fresh a suspension containing cells from a corresponding stock plate containing the indicator strain of interest. Indicator strains suspension samples were transferred using a fresh cotton swab. Results were measured by qualitatively reviewing the subsequent (if any) sizes of the zones of inhibition (ZOI) of indicator strain colony growth. A positive result is when there is a distinctive reduction or complete inhibition of indicator colony growth on the culture medium.
(§3) CABCa agar plates containing various concentrations of saccharide were prepared according to the methods described in Method 1. Producer strains were transferred from stock agar plates into 900 μL THB using a fresh cotton swab. A plastic spread plater was cut to approximately 1.2 cm width and then dipped into ethanol and left to air dry to ensure sterility. A 100 μL sample of the producer strain suspension was then dispensed onto the agar surface in a straight line running diametrically across the agar surface in (approximately) 20 μL spots. The spots were spaced approximately 1.5 cm apart from each other. The plastic spreader was then used to evenly distribute the spots across the agar surface in a 1.5 cm wide strip. This step was taken to ensure an even producer streak was inoculated onto the agar surface and provided an approximate measure of the initial inoculum concentration. Separate plastic spreaders were used for samples containing different producer strains. The samples were left to soak into the agar surface until there was no visible liquid remaining on the agar surface (approximately 20 minutes). Following producer streak preparations, the deferred antagonism assay protocol was followed as per Method 2. Results were recorded by measuring the size of the zone of inhibition (ZOI) in mm.
(§4) The results presented in FIG. 1 and FIG. 2 illustrate the change in ear, nose, and throat (ENT) microorganism indicator strain zone of inhibition sizes. When K12 was cultured in the presence of various concentrations of galactose the ZOI sizes for several of the ENTR indicator strains increased markedly from the control condition (FIG. 1). M. catarrhalis TW1 and TW2 display similar changes in the ZOI sizes across the various concentrations of galactose. The change in TW1 ZOI size peaks at 1.5% galactose(w/v) (12 mm) then decreases at 2.0% galactose (w/v), whereas the change of TW2 ZOI size peaks at 2.0% galactose (w/v) (11 mm). The change in L. lactis T-21 ZOI sizes trend upwards relative to the concentration of galactose present in the culture medium.

M. catarrhalis TW2 = assay: Dose response deferred antagonism assay, producer M18
H. influenzae TW5 [3] = assay: as above; conditions: 1.5% (w/v) raffinose
S. pyogenes M57 = assay: Dose response deferred antagonism assay, producer K12; conditions: 0.1%, 1.0%, and 1.5% (w/v) galactose
Description: as §1, §2, §3, §4

S. pyogenes M76 = assay: Dose response deferred antagonism assay, producer M18; conditions: 1.5% (w/v) galactose, largest
S. sobrinus OMZ176 [4] = assay: Deferred antagonism assay, producer S. salivarius K12; conditions: Streptococcus sobrinus, read-out: Size of zone inhibition normalised to control, S. sobrinus OMZ176
Description: as §1, §2
(§5) Method: CABCa agar plates were prepared with or without 0.5, 1.25, 1.7, 2.5, 3.3 and 5% galactose by the addition of 0.5% (w/v) calcium carbonate to solid CAB agar in bottles and then melted by autoclaving at 110° C. for 10 mins. Once cooled, filter sterilised solutions of the saccharides or distilled water were added and mixed and then 20 ml pipetted into petri dishes.
(§6) A deferred antagonism assay was conducted using K12 or M18 raw ingredient suspended in Todd Hewitt broth (THB). This was spread as a 1.2 cm streak containing approximately 1-2×10^6 cfu down the middle of a CABCa control or CABCa galactose supplemented test plate. After 18 hrs growth at 37° C. with 5% CO2, bacterial growth was removed, and the pH of the agar in the initial streak was measured and adjusted to a pH of 6.5-7.5 using 0.5M sodium carbonate pH11 before sterilizing the agar surface using chloroform vapor. Bacterial test strains were suspended in i-THB before being swabbed across the plates perpendicular to the initial streak. Plates were incubated for a further 18 hrs incubation at 37° C. with 5% CO2 before measuring (mm) any zones of inhibition for each test strain, […]

S. sobrinus OMZ176 [5] = assay: Deferred antagonism assay, producer S. salivarius M18; conditions: Streptococcus sobrinus, read-out: Size of zone inhibition normalised to control, S. sobrinus OMZ176
Description: as §1, §2, §5, §6

OC[C@H]1O[C@H](OC[C@H]2O[C@H](O[C@]3(CO)O[C@H](CO)[C@@H](O)[C@@H]3O)[C@H](O)[C@@H](O)[C@@H]2O)[C@H](O)[C@@H](O)[C@H]1O [Raffinose, D-(+) Raffinose pentahydrate]
inhibitory activity of K12 compared to equivalent composition of the three monomeric saccharides [1]: better inhibitory activity | P. aeruginosa I2 ZOI (P. aeruginosa I2): 10 mm | change in ZOI size for H. influenzae TW5 (H. influenzae TW5 [2]; 1.5% raffinose (w/v), peak): 12 mm | TW5 ZOI size change (H. influenzae TW5 [2]; 2% raffinose (w/v)): 0 mm | change in zone of inhibition size M. catarrhalis TW2 (M. catarrhalis TW2; 1.5% (w/v) raffinose): 31 mm | H. influenzae TW5 ZOI size (H. influenzae TW5 [3]): 26 mm

O=C[C@H](O)[C@@H](O)[C@@H](O)[C@H](O)CO [Galactose, D-galactose]
S. pyogenes M57 ZOI sizes vs control condition (S. pyogenes M57): increase | S. pyogenes M76 zone of inhibition (S. pyogenes M76): 14 mm | zone of inhibition at 1.25 % strength (S. sobrinus OMZ176 [4]; Galactose 1.25% w/w): 0 mm | zone of inhibition at 1.7 % strength (S. sobrinus OMZ176 [4]; Galactose 1.7% w/w): 0 mm | zone of inhibition at 2.5 % strength (S. sobrinus OMZ176 [4]; Galactose 2.5% w/w): 0 mm | zone of inhibition at 3.3 % strength (S. sobrinus OMZ176 [4]; Galactose 3.3% w/w): 0 mm | zone of inhibition at 5 % strength (S. sobrinus OMZ176 [4]; Galactose 5% w/w): 0 mm | zone of inhibition at 0.5 % strength (S. sobrinus OMZ176 [5]; Galactose 0.5% w/w): 0 mm | zone of inhibition at 1.25 % strength (S. sobrinus OMZ176 [5]; Galactose 1.25% w/w): 0 mm | zone of inhibition at 1.7 % strength (S. sobrinus OMZ176 [5]; Galactose 1.7% w/w): 0 mm | zone of inhibition at 2.5 % strength (S. sobrinus OMZ176 [5]; Galactose 2.5% w/w): 0 mm | zone of inhibition at 3.3 % strength (S. sobrinus OMZ176 [5]; Galactose 3.3% w/w): 0 mm | zone of inhibition at 5 % strength (S. sobrinus OMZ176 [5]; Galactose 5% w/w): 0 mm | increase in zone of inhibition M. catarrhalis TW2 (M. catarrhalis TW2; 1.0% (w/v) galactose): 13 mm | increase in zone of inhibition M. catarrhalis TW2 (M. catarrhalis TW2; 1.5% (w/v) galactose): 23 mm
